IC50 and EC50 data for one compound are collected here from publication PMC8971525, “A New Strategy for Multitarget Drug Discovery/Repositioning Through the Identification of Similar 3D Amino Acid Patterns Among Proteins Structures: The Case of Tafluprost and its Effects on Cardiac Ion Channels” (Frontiers in Pharmacology, 2022).

One assay deals with T1, NaV1.5 (Homo sapiens, UniProt Q14524).
T1 construct: gene SCN5A; human Nav1.5 (hH1, M77235) cRNA expressed in Xenopus laevis oocytes
As to the kind of experiment: two-electrode voltage clamp in Xenopus oocytes, block of inward current. It counts as cell-based. (In two-electrode clamp one electrode senses voltage and the other passes current.)

In another assay the target is T2, TASK-1 (Homo sapiens, UniProt O14649).
T2 construct: gene KCNK3; human TASK-1 (KCNK3, NM_002246) cRNA expressed in Xenopus laevis oocytes
T2 sequence (O14649 whole entry): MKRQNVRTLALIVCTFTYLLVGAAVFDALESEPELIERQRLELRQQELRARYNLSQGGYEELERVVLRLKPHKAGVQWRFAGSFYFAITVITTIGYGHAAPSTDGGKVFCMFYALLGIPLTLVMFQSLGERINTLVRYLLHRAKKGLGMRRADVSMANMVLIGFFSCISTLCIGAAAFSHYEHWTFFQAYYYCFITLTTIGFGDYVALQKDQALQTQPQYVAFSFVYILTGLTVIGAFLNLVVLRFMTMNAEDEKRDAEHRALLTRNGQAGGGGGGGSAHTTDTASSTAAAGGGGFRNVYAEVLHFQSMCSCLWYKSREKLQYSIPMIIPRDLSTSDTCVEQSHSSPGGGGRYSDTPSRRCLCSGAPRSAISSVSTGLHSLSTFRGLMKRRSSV
As to the kind of experiment: two-electrode voltage clamp in Xenopus oocytes, block of outward current. It counts as cell-based.

T1 sequence (Q14524 whole entry): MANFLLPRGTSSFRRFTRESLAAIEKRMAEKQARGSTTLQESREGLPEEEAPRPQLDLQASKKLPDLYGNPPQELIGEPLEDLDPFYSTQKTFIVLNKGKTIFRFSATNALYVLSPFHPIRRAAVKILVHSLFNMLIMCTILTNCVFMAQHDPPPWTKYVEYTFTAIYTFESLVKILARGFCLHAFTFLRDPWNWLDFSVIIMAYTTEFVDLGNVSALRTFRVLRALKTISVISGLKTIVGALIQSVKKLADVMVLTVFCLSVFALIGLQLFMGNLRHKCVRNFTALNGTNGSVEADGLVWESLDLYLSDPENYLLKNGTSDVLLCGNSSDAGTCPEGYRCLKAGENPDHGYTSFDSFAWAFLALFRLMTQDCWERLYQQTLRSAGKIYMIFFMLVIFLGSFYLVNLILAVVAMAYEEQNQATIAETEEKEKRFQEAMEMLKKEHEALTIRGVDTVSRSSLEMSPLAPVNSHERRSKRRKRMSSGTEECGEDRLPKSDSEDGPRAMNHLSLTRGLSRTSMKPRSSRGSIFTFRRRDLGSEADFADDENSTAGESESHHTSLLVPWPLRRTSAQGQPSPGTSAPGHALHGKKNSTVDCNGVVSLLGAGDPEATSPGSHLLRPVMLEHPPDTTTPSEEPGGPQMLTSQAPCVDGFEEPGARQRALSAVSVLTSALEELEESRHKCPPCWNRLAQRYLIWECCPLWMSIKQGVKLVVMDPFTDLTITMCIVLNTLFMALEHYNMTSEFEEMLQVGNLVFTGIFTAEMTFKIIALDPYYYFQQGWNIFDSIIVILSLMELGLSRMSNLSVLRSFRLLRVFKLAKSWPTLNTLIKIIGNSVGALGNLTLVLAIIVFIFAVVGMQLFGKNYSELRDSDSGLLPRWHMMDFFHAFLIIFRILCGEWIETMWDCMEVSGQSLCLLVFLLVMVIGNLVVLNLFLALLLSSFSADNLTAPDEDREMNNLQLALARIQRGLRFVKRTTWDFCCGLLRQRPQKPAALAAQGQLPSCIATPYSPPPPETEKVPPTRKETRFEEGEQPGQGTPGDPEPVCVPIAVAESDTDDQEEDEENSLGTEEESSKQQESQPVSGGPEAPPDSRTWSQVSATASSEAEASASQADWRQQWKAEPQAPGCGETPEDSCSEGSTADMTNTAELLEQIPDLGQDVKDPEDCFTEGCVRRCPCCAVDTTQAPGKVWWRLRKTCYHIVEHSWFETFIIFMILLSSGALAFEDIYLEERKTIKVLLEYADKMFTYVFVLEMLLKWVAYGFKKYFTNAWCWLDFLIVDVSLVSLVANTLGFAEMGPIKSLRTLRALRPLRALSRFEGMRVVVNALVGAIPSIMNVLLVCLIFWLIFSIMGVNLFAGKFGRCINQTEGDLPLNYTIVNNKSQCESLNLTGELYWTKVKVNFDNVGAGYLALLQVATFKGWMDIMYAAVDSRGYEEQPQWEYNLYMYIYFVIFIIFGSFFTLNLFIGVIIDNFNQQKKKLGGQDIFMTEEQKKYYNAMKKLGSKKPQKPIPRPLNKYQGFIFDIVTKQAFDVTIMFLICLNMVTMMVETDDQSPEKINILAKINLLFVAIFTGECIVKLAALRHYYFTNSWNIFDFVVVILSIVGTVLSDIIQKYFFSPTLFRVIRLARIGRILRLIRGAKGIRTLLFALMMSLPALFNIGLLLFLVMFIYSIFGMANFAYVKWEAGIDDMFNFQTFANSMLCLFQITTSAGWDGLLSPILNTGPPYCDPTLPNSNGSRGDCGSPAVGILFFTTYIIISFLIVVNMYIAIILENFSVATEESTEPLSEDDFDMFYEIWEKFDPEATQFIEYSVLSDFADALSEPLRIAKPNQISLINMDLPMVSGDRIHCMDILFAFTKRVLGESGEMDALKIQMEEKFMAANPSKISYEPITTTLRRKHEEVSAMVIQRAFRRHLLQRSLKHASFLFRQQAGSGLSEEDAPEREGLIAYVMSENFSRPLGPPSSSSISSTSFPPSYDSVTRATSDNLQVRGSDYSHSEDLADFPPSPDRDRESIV

`CC(C)OC(=O)CCC/C=C\C[C@@H]1[C@@H](/C=C/C(F)(F)COc2ccccc2)[C@H](O)C[C@@H]1O` [tafluprost] returned a half-maximal inhibitory concentration (IC50) against NaV1.5 of approximately 76 µM. At TASK-1, this compound came in with an EC50 of 0.186 ± 0.04 µM.

Broadly, the IC50 is the concentration at which inhibition is half-maximal. A high value points to weaker potency. For orientation: EC50 means the concentration that produces a half-maximal response. Low readings indicate greater potency, high ones weaker potency.
